Data: ChEMBL document CHEMBL5537171, “Design, Synthesis, and Biological Evaluation of Potent and Selective PROTAC Degraders of Oncogenic KRASG12D” (J Med Chem, 2024)
One block for each compound: values may come before it. Activity calls are given as the source filed them. The rule behind the calls is not given here.

Key:
GTPase KRas = GTPase KRas (Homo sapiens, UniProt P01116, G12D); test: Inhibition of KRAS G12D mutant (unknown origin) preincubated for 15 mins followed by SOS1/EDA-GTP-DY-647P1 addition measured after 30 mins by HTRF assay
Sequence of GTPase KRas (P01116 whole entry G12D): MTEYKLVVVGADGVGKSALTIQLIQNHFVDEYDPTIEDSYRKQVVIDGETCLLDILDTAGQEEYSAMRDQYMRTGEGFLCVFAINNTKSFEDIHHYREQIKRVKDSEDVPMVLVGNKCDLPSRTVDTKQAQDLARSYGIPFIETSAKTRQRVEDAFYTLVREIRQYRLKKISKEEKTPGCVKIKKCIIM

[1] = Cooperativity factor alpha, ratio of IC50 for His-tagged VHL/Elongin C/Elongin B (unknown origin) to IC50 for His-tagged VHL/Elongin C/Elongin B/KRAS (unknown origin)
[2] = Competitive binding affinity to His-tagged VHL/Elongin C/Elongin B/KRAS G12D mutant (unknown origin) by FP assay; parameters: species or system Homo sapiens
[3] = tested on: von Hippel-Lindau disease tumor suppressor/GTPase KRas (Homo sapiens), P01116+P40337 [G12D]; test: PROTAC activity at VHL/KRAS G12D mutant in human ASPC1 cells assessed as induction of protein degradation incubated for 24 hrs by Western blot analysis relative to control; type: cell-based
Sequence of von Hippel-Lindau disease tumor suppressor/GTPase KRas (Homo sapiens), P01116+P40337 [G12D] (P01116 whole entry G12D): as above
Sequence of von Hippel-Lindau disease tumor suppressor/GTPase KRas (Homo sapiens), P01116+P40337 [G12D] (P40337 whole entry partner): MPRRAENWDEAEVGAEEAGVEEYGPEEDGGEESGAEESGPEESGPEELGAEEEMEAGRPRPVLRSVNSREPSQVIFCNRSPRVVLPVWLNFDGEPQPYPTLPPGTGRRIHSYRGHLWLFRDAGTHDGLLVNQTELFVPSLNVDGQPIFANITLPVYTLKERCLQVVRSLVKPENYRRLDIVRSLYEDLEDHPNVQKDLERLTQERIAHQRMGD

[4] = Competitive binding affinity to His-tagged VHL/Elongin C/Elongin B (unknown origin) by FP assay; parameters: species or system Homo sapiens
[5] = molecular target: von Hippel-Lindau disease tumor suppressor/GTPase KRas (Homo sapiens, UniProt P01116+P40337, G12D); test: PROTAC activity at VHL/KRAS G12D mutant in human ASPC1 cells assessed as induction of protein degradation incubated for 24 hrs by Western blot analysis; type: cell-based
Sequence of von Hippel-Lindau disease tumor suppressor/GTPase KRas (P01116 whole entry G12D, stated change not applied): as the sequence (P01116 whole entry G12D) above
Sequence of von Hippel-Lindau disease tumor suppressor/GTPase KRas (P40337 whole entry, stated change not applied): as the sequence (P40337 whole entry partner) above

[6] = Drug uptake in human ASPC1 cells at 10 uM incubated for 1 hr by MS analysis; type: ADME, cell-based; details: aspc1, 1 h
Homo sapiens = species on record: Homo sapiens; test: Binding affinity to His-tagged VHL/Elongin C/Elongin B/GST-tagged KRAS G12D mutant (unknown origin) incubated for 1 hr by HTRF assay
AGS = test: Antiproliferative activity against human AGS cells harboring KRAS G12D mutant assessed as inhibition of cell viability incubated for 5 days by Cell Titer Glo assay; type: functional, cell-based; details: 120 h
SNU1 = test: Antiproliferative activity against human SNU1 cells harboring KRAS G12D mutant assessed as inhibition of cell viability incubated for 5 days by Cell Titer Glo assay; type: functional, cell-based; details: SNU1, 120 h
NCI-H1975 = test: Antiproliferative activity against human NCI-H1975 cells harboring wild-type KRAS assessed as inhibition of cell viability incubated for 5 days by Cell Titer Glo assay; type: functional, cell-based; details: NCI-H1975, 120 h
NCI-H358 = test: Antiproliferative activity against human NCI-H358 cells harboring KRAS G12C mutant assessed as inhibition of cell viability incubated for 5 days by Cell Titer Glo assay; type: functional, cell-based; details: NCI-H358, 120 h
HPAF-II = test: Antiproliferative activity against human HPAF-II cells harboring KRAS G12D mutant assessed as inhibition of cell viability incubated for 5 days by Cell Titer Glo assay; type: functional, cell-based; details: 120 h
Panc 04.03 = test: Antiproliferative activity against human Panc 04.03 cells harboring KRAS G12D mutant assessed as inhibition of cell viability incubated for 5 days by Cell Titer Glo assay; type: functional, cell-based; details: Panc 04.03, 120 h
ASPC1 [7] = test: Antiproliferative activity against human ASPC1 cells harboring KRAS G12D mutant assessed as inhibition of cell viability incubated for 5 days by Cell Titer Glo assay; type: functional, cell-based; details: ASPC1, 120 h
[8] = tested on: von Hippel-Lindau disease tumor suppressor/GTPase KRas (Homo sapiens), P01116+P40337 [G12D]; test: PROTAC activity at VHL/KRAS G12D mutant in human ASPC1 cells assessed as induction of protein degradation at 1 to 10 uM incubated for 7 hrs by Western blot analysis; type: cell-based; details: dose 1-10 µM
[9] = Selectivity index, ratio of IC50 for human ASPC1 cells assessed as inhibition of cell viability incubated for 6 hrs followed by compound washout measured after 114 hrs by Cell Titer Glo assay to IC50 for human ASPC1 cells assessed as inhibition of cell viability incubated for 120 hrs of continuous treatment by Cell Titer Glo assay; type: functional
ASPC1 [10] = test: Antiproliferative activity against human ASPC1 cells assessed as inhibition of cell viability incubated for 6 hrs followed by compound washout measured after 114 hrs by Cell Titer Glo assay; type: functional, cell-based
ASPC1 [11] = test: Antiproliferative activity against human ASPC1 cells assessed as inhibition of cell viability incubated for 120 hrs of continuous treatment by Cell Titer Glo assay; type: functional, cell-based; details: ASPC1, 120 h
[12] = tested on: von Hippel-Lindau disease tumor suppressor/GTPase KRas (Homo sapiens), P01116+P40337 [G12D]; test: PROTAC activity at VHL/KRAS G12D mutant in human ASPC1 cells assessed as decrease in pERK level at 1 uM incubated for 6 hrs followed by compound washout measured for <4 hrs by Western blot analysis; type: cell-based

IC50 (GTPase KRas): 5.8 nM
Structure (SMILES): CCc1cccc2cc(O)cc(-c3ncc4c(N5C[C@H]6CC[C@@H](C5)N6)nc(OC[C@@H]5CCCN5C)nc4c3F)c12

Structure (SMILES): CCc1cccc2cc(O)cc(-c3ncc4c(N5C[C@H]6CC[C@@H](C5)N6)nc(OC[C@@H]5CCCN5CCCOCCC(=O)N[C@H](C(=O)N5C[C@H](O)C[C@H]5C(=O)N[C@@H](C)c5ccc(-c6scnc6C)cc5)C(C)(C)C)nc4c3F)c12
Ratio IC50 [1]: 35.7 | IC50 [2]: 25.4 nM | Emax [3]: 98.1% | IC50 [4]: 908 nM | DC50 ([5]; read-out: DC50): 132 nM

Structure (SMILES): CCc1cccc2cc(O)cc(-c3ncc4c(N5C[C@H]6CC[C@@H](C5)N6)nc(OC[C@@H]5CCCN5CCCCOCC(=O)N[C@H](C(=O)N5C[C@H](O)C[C@H]5C(=O)N[C@@H](C)c5ccc(-c6scnc6C)cc5)C(C)(C)C)nc4c3F)c12
Ratio IC50 [1]: 21.5 | IC50 [2]: 18.9 nM | Emax [3]: 99.4% | IC50 [4]: 407 nM | Drug uptake [6]: Active | DC50 ([5]; read-out: DC50): 164 nM

Structure (SMILES): C#Cc1c(F)ccc2cc(O)cc(-c3ncc4c(N5C[C@H]6CC[C@@H](C5)N6)nc(OC[C@@H]5CCCN5CCCCOCC(=O)N[C@H](C(=O)N5C[C@H](O)C[C@H]5C(=O)N[C@@H](C)c5ccc(-c6scnc6C)cc5)C(C)(C)C)nc4c3F)c12
Emax [3]: 99.5% | DC50 ([5]; read-out: DC50): 116 nM

Structure (SMILES): CCc1cccc2cc(O)cc(-c3ncc4c(N5C[C@H]6CC[C@@H](C5)N6)nc(OC[C@@H]5CCCN5C5CCC6(CC5)CCN(CC(=O)N[C@H](C(=O)N5C[C@H](O)C[C@H]5C(=O)N[C@@H](C)c5ccc(-c7scnc7C)cc5)C(C)(C)C)CC6)nc4c3F)c12
Emax [3]: 53.9%

Ratio IC50 [1]: 0.9 | IC50 [2]: 380 nM | IC50 [4]: 343 nM
Structure (SMILES): CC(=O)N[C@H](C(=O)N1C[C@H](O)C[C@H]1C(=O)N[C@@H](C)c1ccc(-c2scnc2C)cc1)C(C)(C)C

Structure (SMILES): CCc1c(F)ccc2cc(O)cc(-c3ncc4c(N5C[C@H]6CC[C@@H](C5)N6)nc(OC[C@@H]5CCCN5CCCCOCC(=O)N[C@H](C(=O)N5C[C@@H](O)C[C@H]5C(=O)N[C@@H](C)c5ccc(-c6scnc6C)cc5)C(C)(C)C)nc4c3F)c12
Activity (Homo sapiens): inactive | IC50 (AGS): 955 nM | IC50 (SNU1): 927 nM | IC50 (NCI-H1975): > 10000 nM | IC50 (NCI-H358): > 10000 nM | IC50 (HPAF-II): > 4000 nM | IC50 (Panc 04.03): 3360 nM | IC50 (ASPC1 [7]): > 2000 nM | Activity [8]: inactive

Structure (SMILES): CCc1cccc2cc(O)cc(-c3ncc4c(N5C[C@H]6CC[C@@H](C5)N6)nc(OC[C@@H]5CCCN5CCCCCCCC(=O)N[C@H](C(=O)N5C[C@H](O)C[C@H]5C(=O)N[C@@H](C)c5ccc(-c6scnc6C)cc5)C(C)(C)C)nc4c3F)c12
Emax [3]: 82.4% | DC50 ([5]; read-out: DC50): 2260 nM

Structure (SMILES): CCc1cccc2cc(O)cc(-c3ncc4c(N5C[C@H]6CC[C@@H](C5)N6)nc(OC[C@@H]5CCCN5CCCCOCCC(=O)N[C@H](C(=O)N5C[C@H](O)C[C@H]5C(=O)N[C@@H](C)c5ccc(-c6scnc6C)cc5)C(C)(C)C)nc4c3F)c12
Emax [3]: 90.2% | DC50 ([5]; read-out: DC50): 1310 nM

Structure (SMILES): CCc1cccc2cc(O)cc(-c3ncc4c(N5C[C@H]6CC[C@@H](C5)N6)nc(OC[C@@H]5CCCN5CCCCCCC(=O)N[C@H](C(=O)N5C[C@H](O)C[C@H]5C(=O)N[C@@H](C)c5ccc(-c6scnc6C)cc5)C(C)(C)C)nc4c3F)c12
Emax [3]: 98.9% | DC50 ([5]; read-out: DC50): 572 nM

Structure (SMILES): CCc1cccc2cc(O)cc(-c3ncc4c(N5C[C@H]6CC[C@@H](C5)N6)nc(OC[C@@H]5CCCN5CCC(=O)NCCC(=O)N[C@H](C(=O)N5C[C@H](O)C[C@H]5C(=O)N[C@@H](C)c5ccc(-c6scnc6C)cc5)C(C)(C)C)nc4c3F)c12
Ratio IC50 [1]: 76.2 | IC50 [2]: 29.8 nM | Emax [3]: 83.6% | IC50 [4]: 2270 nM | Drug uptake [6]: Active | DC50 ([5]; read-out: DC50): 3810 nM

Structure (SMILES): CCc1cccc2cc(O)cc(-c3ncc4c(N5C[C@H]6CC[C@@H](C5)N6)nc(OC[C@@H]5CCCN5CCCCCCCCC(=O)N[C@H](C(=O)N5C[C@H](O)C[C@H]5C(=O)N[C@@H](C)c5ccc(-c6scnc6C)cc5)C(C)(C)C)nc4c3F)c12
Emax [3]: 89.3% | DC50 ([5]; read-out: DC50): 165 nM

Structure (SMILES): CCc1cccc2cc(O)cc(-c3ncc4c(N5C[C@H]6CC[C@@H](C5)N6)nc(OC[C@@H]5CCCN5CCCCCC(=O)N[C@H](C(=O)N5C[C@H](O)C[C@H]5C(=O)N[C@@H](C)c5ccc(-c6scnc6C)cc5)C(C)(C)C)nc4c3F)c12
Emax [3]: 89.7% | DC50 ([5]; read-out: DC50): 1200 nM

Structure (SMILES): CCc1cccc2cc(O)cc(-c3ncc4c(N5C[C@H]6CC[C@@H](C5)N6)nc(OC[C@@H]5CCCN5CCCCC(=O)N[C@H](C(=O)N5C[C@H](O)C[C@H]5C(=O)N[C@@H](C)c5ccc(-c6scnc6C)cc5)C(C)(C)C)nc4c3F)c12
Emax [3]: 96.7% | DC50 ([5]; read-out: DC50): 1010 nM

Structure (SMILES): CCc1cccc2cc(O)cc(-c3ncc4c(N5C[C@H]6CC[C@@H](C5)N6)nc(OC[C@@H]5CCCN5CC5CCN(CCC(=O)N[C@H](C(=O)N6C[C@H](O)C[C@H]6C(=O)N[C@@H](C)c6ccc(-c7scnc7C)cc6)C(C)(C)C)CC5)nc4c3F)c12
Ratio IC50 [1]: 26.9 | IC50 [2]: 80.4 nM | Emax [3]: 29.8% | IC50 [4]: 2160 nM

Structure (SMILES): CCc1cccc2cc(O)cc(-c3ncc4c(N5C[C@H]6CC[C@@H](C5)N6)nc(OC[C@@H]5CCCN5CCOCCC(=O)N[C@H](C(=O)N5C[C@H](O)C[C@H]5C(=O)N[C@@H](C)c5ccc(-c6scnc6C)cc5)C(C)(C)C)nc4c3F)c12
Emax [3]: 89.5% | DC50 ([5]; read-out: DC50): 1820 nM

Structure (SMILES): CCc1c(F)ccc2cc(O)cc(-c3ncc4c(N5C[C@H]6CC[C@@H](C5)N6)nc(OC[C@@H]5C[C@@H](F)CN5CCCCOCC(=O)N[C@H](C(=O)N5C[C@H](O)C[C@H]5C(=O)N[C@@H](C)c5ccc(-c6scnc6C)cc5)C(C)(C)C)nc4c3F)c12
Emax [3]: 96.2% | DC50 ([5]; read-out: DC50): 87.2 nM

Structure (SMILES): CCc1cccc2cc(O)cc(-c3ncc4c(N5C[C@H]6CC[C@@H](C5)N6)nc(OC[C@@H]5CCCN5C5CC6(CCN(CC(=O)N[C@H](C(=O)N7C[C@H](O)C[C@H]7C(=O)N[C@@H](C)c7ccc(-c8scnc8C)cc7)C(C)(C)C)CC6)C5)nc4c3F)c12
Emax [3]: 85.1% | DC50 ([5]; read-out: DC50): 134 nM

Structure (SMILES): CCc1c(F)ccc2cc(O)cc(-c3ncc4c(N5C[C@H]6CC[C@@H](C5)N6)nc(OC[C@@H]5CCCN5C)nc4c3F)c12
IC50 (AGS): 20.1 nM | Ratio IC50 [9]: 21.14 | IC50 (SNU1): 29.8 nM | IC50 (NCI-H1975): > 10000 nM | IC50 (ASPC1 [10]): 2940 nM | IC50 (NCI-H358): > 10000 nM | IC50 (HPAF-II): 165 nM | IC50 (ASPC1 [11]): 139 nM | IC50 (Panc 04.03): 112 nM | Activity [12]: Active | IC50 (ASPC1 [7]): 154 nM

Structure (SMILES): CCc1cccc2cc(O)cc(-c3ncc4c(N5C[C@H]6CC[C@@H](C5)N6)nc(OC[C@@H]5CCCN5C[C@H]5CC[C@H](C(=O)N[C@H](C(=O)N6C[C@H](O)C[C@H]6C(=O)N[C@@H](C)c6ccc(-c7scnc7C)cc6)C(C)(C)C)CC5)nc4c3F)c12
Emax [3]: inactive | DC50 [5]: Not Active
